From PubChem BioAssay AID179 (DTP/NCI, 2004)
Active and inactive are the calls of the source.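 The calls were made as follows: active = compounds giving half or more protection of infected cells from virus-caused growth loss, again on retest; inactive = the rest.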

System: CEM cells HIV-1 protection, formazan growth assay
Assay: NCI AIDS Antiviral Assay
Conditions: for IC50: measured here: growth of uninfected CEM cells
In short: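 Human CEM cells, uninfected and HIV-1-infected, exposed to five drug concentrations; growth measured by soluble formazan assay and scored as percent protection from infection, with protecting compounds retested.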

Compound	EC50	IC50	outcome
COc1ccc2c(c1)OC[C@@H]1c3cc(O)c4c(OCc5ccccc5)cccc4c3O[C@H]21	> 100 µM	67.6 µM	
c1cnc(NCCSSCCNc2ncccn2)nc1	> 200 µM	38 µM	
c1ccc(Cc2cccc3cc(-c4ccc(-c5ccccc5)cc4)[nH]c23)cc1	> 200 µM	166 µM	
Cc1nnc2sc3ccccc3n12			inactive
O=C(Nc1ccc(-c2cccs2)oc1=O)c1cnccn1	> 151 µM	> 151 µM	
Cc1ccc2c3c4c(ccc13)C(C)(C)OC4=C(C(C)C)C2=O	> 200 µM	15.8 µM	
CCCc1onc(CCC(=O)N(Cc2ccccc2)Cc2ccccc2)c1CC			inactive
COc1ccc(Nc2nc3ccccc3nc2-c2cccs2)cc1	> 15.5 µM	> 15.5 µM	
CC1=Nc2nc(=N)nc3cccc(n23)N1	> 200 µM	170 µM	
CC(NNC(=S)N1CCN(c2ccccn2)CC1)c1cccc[n+]1[O-] (stereo not given)	> 67.6 µM	0.195 µM	
NC(=O)SCC(=O)NNc1ccccc1	> 200 µM	4.47 µM	
CC(=O)c1cc2c3c(c1)C(=O)CCN3CCC2=O			inactive
N#CC1CC(c2ccccc2)=NC1c1ccccc1 (stereo not given)	> 29.5 µM	> 29.5 µM	
C[C@H]1c2cccc(O)c2C(O)=C2C(=O)[C@]3(O)C(O)=C(C(N)=O)C(=O)[C@@H](N(C)C)[C@@H]3[C@@H](O)[C@@H]21	> 186 µM	8.32 µM	
CN1C(=O)N(C)C(N2CCCC2)c2c1nc1ccccn1c2=O (stereo not given)	> 219 µM	66.1 µM	
CC(CC(=O)N(C)[C@H](C[C@@H](C)C(Cl)(Cl)Cl)c1nccs1)C(Cl)Cl (stereo not given in full)			inactive
S=C=Nc1ccc(CSc2nc3ccccc3[nH]2)cc1			inactive
O=C1NCC2(CCNCC2)N1	> 200 µM	> 200 µM	
N#CCCC(CC#N)N1CCN(C(CC#N)CCC#N)CC1 (stereo not given)	> 200 µM	> 200 µM	
O=c1[nH]c2ncccc2c(=O)n1O	> 200 µM	34.7 µM	
COc1ccc2c(c1)CCC1=C/C(=N\NC(N)=O)CCC12C (stereo not given)	> 63.1 µM	> 63.1 µM	
COC(=O)[C@@H](Cc1ccccc1)NNC(=O)OC(C)(C)C	> 851 µM	437 µM	

Compound	EC50	IC50	outcome
COC(=O)/C=C\C(C#N)(C#N)N=Cc1cccs1	> 2 µM	0.389 µM	
COc1ccc2oc(OC)c(CC=C(C)C)c(=O)c2c1C	> 200 µM	141 µM	
CN1c2ccccc2N(C(=O)c2ccc([N+](=O)[O-])cc2)C(CC(=O)O)c2cccn21 (stereo not given)	> 617 µM	240 µM	
COc1ccc(/C=c2/sc3n(c2=O)NC2(CCC(C)CC2)NN=3)cc1 (stereo not given)			inactive
NC(=O)C1CC2(C1)CC(C(N)=O)C2 (stereo not given)	> 245 µM	> 245 µM	
C[C@@H]1C[C@H]2[C@@H]3CCC4=CC(=O)C=C[C@]4(C)[C@@]3(F)[C@@H](O)C[C@]2(C)[C@@]1(O)C(=O)CO			inactive
CCCCCCCCCCCCCCCCCCN1CN(CO)C(=O)N(CO)C1	> 200 µM	166 µM	
NCC1(N2CCOCC2)C2CCCC21CNc1ccccc1 (stereo not given)	> 24 µM	> 24 µM	
O=C1c2ccccc2Sc2ccccc2N1C(=O)C1CC1	39.8 µM	55 µM	
Cc1cc(NC(=O)c2ccc(N=Nc3cc(S(=O)(=O)O)c4ccccc4c3O)cc2)ccc1N=Nc1ccc2cc(S(=O)(=O)O)cc(S(=O)(=O)O)c2c1			active
O=C1C[C@]2(CC(O)CO)CC(O1)[C@@H](I)CC21OCCO1 (stereo not given in full)	> 200 µM	> 200 µM	
COC(=O)c1ccccc1N(C(=O)c1ccccc1)c1ccccc1C			inactive
CCc1cccc(C(C)CC)c1NC(=O)CC1C(=O)Nc2ccccc2S1=O (stereo not given)	> 46.8 µM	> 46.8 µM	
O=C1CN(C=C(C(=O)c2ccccc2)C(=O)c2ccccc2)C(=S)N1			inactive
Cc1c2ccccc2nc(CN2CCOCC2)[n+]1[O-]	> 200 µM	> 200 µM	
CS(=O)(=O)OCCN1CCN(C(=O)c2ccc(Cl)c3c(Nc4ccc(S(=O)(=O)N=C(N)N)cc4)c4ccccc4nc23)CC1	> 33.9 µM	> 33.9 µM	
C=Cc1cc[n+](Cc2ccc(C[n+]3ccc(C=C)cc3)cc2)cc1	> 166 µM	85.1 µM	
CCCCCCC[CH2][Sn]1([CH2]CCCCCCC)[O]C(=O)c2cccnc2[O]1	> 7.41 µM	> 7.41 µM	
CC1=C(Br)CC23C(C1)OC(Br)(C=CC2(C)O)C3(C)C (stereo not given) (tested in a mixture with another compound)			inactive
CC(=O)Nc1c(S(=O)(=O)c2ccccc2)c(C)c(C)n1Cc1ccccc1	> 200 µM	132 µM	
CCOC(=O)CNC(=O)C(C)NC(=O)C(NC(=O)CC(c1ncc[nH]1)c1ncc[nH]1)C(C)CC (stereo not given)	> 100 µM	> 100 µM	
CC1=Nc2nc(=NCCCN(C)C)nc3cccc(n23)N1	> 200 µM	> 200 µM	

Compound	EC50	IC50	outcome
Cc1nc2c(O)cc(Cl)c(O)c2nc1C			inactive
C=CC[P@]1(=O)O[C@H](c2ccccc2)[C@H](C)N1C			inactive
COc1cc(C2=C(c3cc(OC)c4ccccc4c3OC)C(=O)c3ccccc3C2=O)c(OC)c2ccccc12	> 100 µM	> 100 µM	
O=c1[nH]c(Nc2nc3ccccc3[nH]2)nc(O)c1-c1ccccc1	162 µM	> 200 µM	
COc1ccc2nc3cc(Cl)ccc3c(NCCC(=O)OCC(O)C(O)C(O[C@H](C)C(=O)NC(C)C(=O)NC(CCC(N)=O)C(=O)OCc3ccccc3)C(C=O)NC(C)=O)c2c1 (stereo not given in full)	0.955 µM	4.68 µM	
CC[C@H]1C2OC(=O)[C@H](C)C2[C@@]2(O)C[C@@H]([C@@H]3C[C@H](C)C(=O)O3)N3CCCC[C@@]12C3=O (stereo not given in full)	> 200 µM	> 200 µM	
O=C1c2ccccc2C(=O)N1n1c(Cc2ccc([N+](=O)[O-])cc2)n[nH]c1=O	> 200 µM	> 200 µM	
OC1CCC(C#CC#CC2CCC(O)CC2)CC1 (stereo not given)	> 100 µM	> 100 µM	
OC1(C2(O)c3ccccc3-c3ccccc32)c2ccccc2-c2ccccc21	> 72.4 µM	41.7 µM	
C=CCC(C(=N)C(C#N)(CC=C)C1=CCCCC1)C1=CCCCC1 (stereo not given)	> 97.7 µM	81.3 µM	
COc1ccccc1S(=O)Nc1ccccc1 (stereo not given)	> 200 µM	> 200 µM	
C/C(=C(/C)c1ccc(O)cc1)c1ccc(O)cc1	> 200 µM	52.5 µM	
CC1(C)Cc2cc(C(=O)O)c3c(c2C1=O)COCC3			inactive
c1ccc(SC2CCCCO2)cc1 (stereo not given)			inactive
CC(C)c1cc2c(O)c(c1)Cc1cc(C(C)C)cc(c1O)Cc1cc(C(C)C)cc(c1O)Cc1cc(C(C)C)cc(c1O)C2	> 6.31 µM	> 6.31 µM	
O=[N+]([O-])c1ccc(C2=Nc3ccccc3S(=O)C(c3ccccc3)C2)cc1 (stereo not given)	> 7.24 µM	> 7.24 µM	
CCOC(=O)c1nc2cc(C(F)(F)F)ccc2nc1Nc1cc(OC)c(OC)c(OC)c1			inactive
C/C=C(/C1CC2c3[nH]c4ccccc4c3CCN2C(=O)C1C(=O)OCC)[Si](C)(C)C (stereo not given)	> 8.91 µM	> 8.91 µM	
O=C(O)C(O)C(O)C(O)C(O)C(O)C(O)CO (stereo not given)			inactive
O=C(Nc1cccc(Cc2cccc(NC(=O)c3ccccc3)c2)c1)c1ccccc1	> 9.33 µM	> 9.33 µM	
CC1=CC(C)(C)SC(SSSC2=NC(C)=CC(C)(C)S2)=N1	> 200 µM	38.9 µM	
Cc1ccc(C)c(NC(=O)C(=O)C2C(=O)N(c3ccccc3)N=C2N)c1 (stereo not given)	> 708 µM	631 µM	

Compound	EC50	IC50	outcome
Cc1cc(=O)c2c(O)cc(O)c(C3CCN(C)CC3O)c2o1 (stereo not given)	> 1020 µM	17 µM	
C[Si](C)(OCCS(=O)(=O)O)C1(Cc2cccc3ccccc23)S(=O)(=O)OCCOS1(=O)=O	> 200 µM	107 µM	
Cc1cccc(C(=O)O)c1C(=O)c1cccc2ccccc12			inactive
C=C1C(OC(=O)c2ccccc2)C2[C@@H](OC(=O)CC)[C@@H](C)C[C@]2(O)C(=O)[C@@H](C)/C=C/C(C)(C)C(=O)C(O)[C@H]1OC(=O)C(C)C (stereo not given in full)			inactive
CN1C(=O)c2ccccc2Cc2c(NCc3ccccc3)ncnc21	> 89.1 µM	19.1 µM	
Nc1ccc(S(=O)(=O)O)cc1[N+](=O)[O-]	> 1150 µM	> 1150 µM	
CC(C)CCCC(C)[C@H]1CCC2[C@@H]3CCC4Nc5c(cnn5-c5ccccc5)C[C@]4(C)C3CC[C@@]21C (stereo not given in full)			inactive
Cc1cn(CC2=NCC(C)(C)N2)c(=O)[nH]c1=O	> 200 µM	93.3 µM	
Cc1nc2c(=O)[nH]cnc2o1	> 575 µM	> 575 µM	
CC(Oc1ccc2c(-c3ccc(Cl)cc3)cc(=O)oc2c1)C(=O)O (stereo not given)			inactive
C[C@]12Cc3conc3C(O)=C1CC[C@@H]1C2CC[C@@]2(C)C1CC[C@@H]2O (stereo not given in full)	> 204 µM	25.7 µM	
CC(C)(C)C(=O)OCC1CCC[N+]2(C)CCCCC12 (stereo not given)	> 200 µM	> 200 µM	
CCOC(=O)N1CCC2(CC1)C[C@](C)(C(C)=O)C(C)O2 (stereo not given in full)	> 200 µM	> 200 µM	
O=C(c1ccccc1)C(c1ccccc1)C1(O)C(=O)Nc2c(Cl)cc(Cl)cc21 (stereo not given)	> 63.1 µM	> 63.1 µM	
COC(=O)c1cc(C(=CCC[C@H]2CC[C@@]3(C)C(CCC4C3CC[C@@]3(C)C4CC[C@@H]3C(C)CCCC(C)C)C2)c2cc(Cl)c(O)c(C(=O)OC)c2)cc(Cl)c1O (stereo not given in full)	> 200 µM	> 200 µM	
OCC[N+]12CCCN1CCC2	> 1050 µM	> 1050 µM	
O=C(Nc1ccccc1)c1cc(S(=O)(=O)Nc2nc3ncccc3[nH]2)c(SSc2cc(Cl)c(C(=O)Nc3ccccc3)cc2S(=O)(=O)Nc2nc3ncccc3[nH]2)cc1Cl	112 µM	> 200 µM	
CC1(C)CC(=O)C(/C=N/C(=S)NCc2ccccc2)=C(O)C1	> 200 µM	> 200 µM	
CN(C)c1ccc(-c2cc(C(=O)O)c3c(ccc4ccccc43)n2)cc1	> 20.9 µM	> 20.9 µM	
CC(=O)c1c2c(cc3c1CCC3)CCC2	> 200 µM	> 200 µM	
O=c1[nH]nc(-c2ccccc2)n1Nc1ccccc1	> 200 µM	> 200 µM	
Cc1[nH]ccc2c1[nH]c1cc(=O)ccc12	> 1070 µM	16.6 µM	
